Laboratory results from US20070003987A1, “Screening method for substance binding to merozoite surface protein-1/42” (priority 2003, published 2007).

Key:
P. vivax MSP133 = assay: binding of suramin by fluorimetry
Procedure: P. vivax MSP133 was expressed using the P. vivax MSP142 clone, above, as a template for PCR, followed by ligation of the product into vector pET30Xa/LIC. The sequence runs from Asp 1325 to Ser 1618 (Accession number A39401) following the N-terminal purification tag. The vector was used to transform BL21(DE3)pLysS cells. For expression, a culture of the transformed cells was induced at an OD600 of 0.6-0.8 at 37° C. with 1 mM IPTG for 3 h. The cells were harvested by centrifugation and the cell pellet lysed using the Bugbuster protein extraction reagent (Novagen). The cell lysate was cleared by centrifugation and the supernatant loaded directly onto a Ni-NTA column. […]
The intrinsic fluorescence of suramin was used to determine its capacity to bind to the various MSP1-derived proteins. The fluorescence was measured using a Perkin Elmer LS-3B or a Spex Fluoro Max 2 fluorimeter. Suramin was excited at a wavelength of 315 or 330 nm with 2.5 nm resolution, the emission spectra were measured at wavelengths ranging from 350-450 nm. Suramin and the MSP1 proteins were diluted in 20 mM NaH2PO4, 150 mM NaCl at pH 7.2 and analysed at 10 or 20° C. […] The Kd for the suramin-MSP1 binding was determined from three independent experiments.

MSP142 = MSP142 (Plasmodium falciparum, UniProt Q8I0U8); assay: P. falciparum MSP1 secondary processing assay (merozoites, Western blot); format: biochemical; design: Merozoites were purified as described previously; endogenous in cells; host or cells: purified P. falciparum merozoites released from mature schizonts
Procedure: Merozoites were purified as described previously (Blackman 1994 Methods Cell Biol. 45, 213-220) after release from mature schizonts into growth medium supplemented with 2 mM EGTA. Merozoites were harvested by centrifugation, followed by sequential passage through pre-wetted filters of 3 and 1.2 μm pore size. Merozoites were washed in Ca^2+- and Mg^2+-free PBS in the presence of protease inhibitors (leupeptin, antipain and aprotinin at 10 μg ml^−1). The merozoites were then washed and resuspended in 50 mM Tris-HCl pH 7.2, 5 mM CaCl2, 1 mM MgCl2, plus leupeptin, antipain and aprotinin at 10 μg ml^−1 (processing buffer), and divided into 18 μl aliquots. Two microlitres of either diluted compound or reaction buffer were added and the samples incubated for 1 h at 37° C. Control assays included those in which processing was prevented by immediate addition of either SDS, 1 mM PMSF or 5 mM EGTA; and those in the absence of compound or in the presence of 0.2 mM TLCK (tosyl-L-lysyl chloromethyl ketone). After 1 h the reaction was stopped, and MSP1 processing was analysed using a Western blot-based assay (Blackman 1994 Methods Cell Biol. 45, 213-220). The blots were probed with a rabbit anti-MSP133/MSP142 antibody and the bands corresponding to MSP142 and MSP133 polypeptides were visualised by enhanced chemiluminescence.
Purified merozoites were incubated in the presence or absence of suramin or NTS and polypeptides subjected to SDS-PAGE and Western blotting.

Chain of MSP142 (Q8I0U8 20-1326): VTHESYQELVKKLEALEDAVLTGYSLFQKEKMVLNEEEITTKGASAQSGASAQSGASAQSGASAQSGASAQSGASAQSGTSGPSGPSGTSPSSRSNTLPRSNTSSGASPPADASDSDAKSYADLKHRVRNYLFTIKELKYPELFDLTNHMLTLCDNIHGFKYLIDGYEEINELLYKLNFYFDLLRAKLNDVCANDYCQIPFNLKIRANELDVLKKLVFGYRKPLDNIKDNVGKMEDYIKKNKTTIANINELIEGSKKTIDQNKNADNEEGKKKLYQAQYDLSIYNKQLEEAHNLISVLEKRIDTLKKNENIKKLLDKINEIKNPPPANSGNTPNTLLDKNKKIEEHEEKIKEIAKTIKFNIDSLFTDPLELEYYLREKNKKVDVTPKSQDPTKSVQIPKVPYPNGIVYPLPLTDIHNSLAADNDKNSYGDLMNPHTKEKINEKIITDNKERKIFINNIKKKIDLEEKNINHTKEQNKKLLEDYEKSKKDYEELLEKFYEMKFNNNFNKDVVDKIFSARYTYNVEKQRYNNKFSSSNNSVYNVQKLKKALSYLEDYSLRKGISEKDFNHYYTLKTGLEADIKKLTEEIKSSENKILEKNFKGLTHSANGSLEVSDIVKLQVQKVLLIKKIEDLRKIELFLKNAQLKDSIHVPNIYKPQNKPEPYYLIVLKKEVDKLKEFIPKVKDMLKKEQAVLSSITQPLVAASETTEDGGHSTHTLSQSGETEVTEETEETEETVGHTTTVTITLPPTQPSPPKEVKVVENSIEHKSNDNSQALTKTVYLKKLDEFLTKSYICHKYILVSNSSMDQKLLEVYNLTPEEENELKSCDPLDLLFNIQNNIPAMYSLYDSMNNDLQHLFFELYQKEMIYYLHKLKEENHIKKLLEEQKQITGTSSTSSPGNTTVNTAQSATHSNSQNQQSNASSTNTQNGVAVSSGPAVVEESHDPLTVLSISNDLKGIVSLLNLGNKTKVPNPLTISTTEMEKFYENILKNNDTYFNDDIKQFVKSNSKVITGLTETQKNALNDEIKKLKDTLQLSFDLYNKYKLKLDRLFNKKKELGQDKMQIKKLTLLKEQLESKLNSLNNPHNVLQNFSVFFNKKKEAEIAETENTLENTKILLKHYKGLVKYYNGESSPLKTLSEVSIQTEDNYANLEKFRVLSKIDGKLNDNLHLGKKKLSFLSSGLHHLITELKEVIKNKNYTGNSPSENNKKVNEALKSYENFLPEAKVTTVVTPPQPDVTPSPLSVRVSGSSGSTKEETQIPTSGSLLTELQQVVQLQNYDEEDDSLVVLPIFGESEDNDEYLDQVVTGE
Chain of MSP142 (Q8I0U8 1327-1699): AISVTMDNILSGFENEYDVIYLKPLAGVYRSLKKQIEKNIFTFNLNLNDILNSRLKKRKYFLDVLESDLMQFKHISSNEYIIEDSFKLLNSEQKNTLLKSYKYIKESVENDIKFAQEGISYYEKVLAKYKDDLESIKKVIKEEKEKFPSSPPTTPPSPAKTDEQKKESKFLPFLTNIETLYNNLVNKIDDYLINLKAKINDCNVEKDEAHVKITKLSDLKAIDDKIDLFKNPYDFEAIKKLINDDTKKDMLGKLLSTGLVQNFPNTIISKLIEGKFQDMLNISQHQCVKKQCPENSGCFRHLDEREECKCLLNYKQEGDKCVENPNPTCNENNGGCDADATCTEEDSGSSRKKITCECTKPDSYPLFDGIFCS

## Cc1ccc(C(=O)Nc2ccc(S(=O)(=O)O)c3cc(S(=O)(=O)O)cc(S(=O)(=O)O)c23)cc1NC(=O)c1cccc(NC(=O)Nc2cccc(C(=O)Nc3cc(C(=O)Nc4ccc(S(=O)(=O)O)c5cc(S(=O)(=O)O)cc(S(=O)(=O)O)c45)ccc3C)c2)c1 [suramin]
P. vivax MSP133
  enhancement of intrinsic suramin fluorescence on binding: large binding-induced enhancements
MSP142; 200 μM, 1 h at 37° C.
  inhibition of MSP142 secondary processing: absence of MSP133
MSP142; 1.25-200 μM suramin
  dose dependence of inhibition of MSP142 processing (FIG. 3B): dose-dependent
